According to patent US20050261283A1, “Methods and compositions for the treatment of graft failure” (priority 2002, published 2005):
≈ marks a conversion by molar mass, not a printed value. Counter-ions that a name gives are not always drawn.

Key:
[1] = system: human aortic vascular smooth muscle cell (HASOM cells); test: PDGF-BB induced migration of human aortic vascular smooth muscle cells, Boyden chamber; assay type: cell-based
Procedure: The cells were then cultured in the presence of these agents for forty-eight hours prior to the migration assay. […] Each well contained an insert with a polycarbonate filter having 8 μm pores. In preparation for the migration assays, the membranes were coated with 0.1% gelatin for 8 hours, aspirated, and allowed to dry for 2 hours.
The M-199 media containing 0.5% BSA and 20 ng/ml human PDGF-B (hPDGF-BB) was placed in the bottom Boyden chamber. Cells were incubated at 5% CO2 at 37° C. for twelve hours and the cells lying on the upper surface of the membrane were scraped off. The insert membranes were removed and the cells on the lower surface of each membrane were stained with hematoxylin. Cell migration was then quantified by counting the cells in five random high-power fields on the lower surface of the membrane. All assays were run in triplicate.

[2] = system: cells of porcine origin from a primary explant of porcine carotid artery; test: PDGF induced migration of cells of porcine origin (carotid artery explant), Boyden chamber; assay type: cell-based; settings: hPDGF-BB 20 ng/ml; second passage cells; FIG. 13

Row | Compound | inhibition of PDGF induced migration of HASOM cells ([1]; hPDGF-BB 20 ng/ml, 48 h pre-treatment, 12 h migration, FIG. 12) | inhibition of PDGF-B induced migration of porcine cells [2] | IC50 ([1]; Homo sapiens, in vitro VSMC migration, read-out: IC50 for blocking VSMC migration)
1 | Cc1ccc(NC(=O)c2ccc(CN3CCN(C)CC3)cc2)cc1Nc1nccc(-c2cccnc2)n1 [Gleevec, imatinib mesylate] | potently inhibited PDGF induced migration of HASOM cells in a dose dependent manner | inhibited PDGF-B induced migration of theses porcine cells a dose dependent manner | 
2 | CO[C@H]1C[C@@H]2CC[C@@H](C)[C@@](O)(O2)C(=O)C(=O)N2CCCC[C@H]2C(=O)O[C@H]([C@H](C)C[C@@H]2CC[C@@H](O)[C@H](OC)C2)CC(=O)[C@H](C)/C=C(\C)[C@@H](O)[C@@H](OC)C(=O)[C@H](C)C[C@H](C)/C=C/C=C/C=C/1C [rapamycin] |  |  | 1 to 5 ng/mL (≈ 1.09 to 5.47 nM)
